12 compounds from ChEMBL document CHEMBL5338755, “Thiophene Carboxamide Analogs with Long Alkyl Chains Comprising Ethylene Glycol Units Inhibit Glioblastoma Cell Proliferation by Activating AMPK” (J Med Chem, 2023) can be followed below.

SMILES strings stand for the structures. Active and inactive are the calls of the source. The calls are words filed in the database; no cut-off is given here.

Data set [1] deals with Glioblastoma stem cell. The data set can be described thus: Inhibition of cell proliferation of human Glioblastoma stem cell assessed as reduction in viable cell number at 100 to 500 nM measured after 72 hrs by trypan blue exclusion assay. The data set is classed as functional, cell-based. The conditions noted are these: dose 100-500 nM.
In data set [2] the test system is Glioblastoma stem cell. Nature of the data set: Inhibition of cell proliferation of human Glioblastoma stem cell assessed as reduction in viable cell number at 500 nM measured after 72 hrs by trypan blue exclusion assay. Format: functional, cell-based.
Data set [3] relates to U-251. The data set can be described thus: Synergistic antiproliferative activity against human U-251 cells incubated for 6 days in presence of temozolomide by trypan blue staining based automated cell counter analysis. Format: functional. To be noted: U-251, 144 h, time 6 day, read-out: ED50 (the source's name).
Data set [4] can be described thus: Antiproliferative activity against human Glioblastoma stem cell assessed as reduction in cell count at 100 to 500 nM measured after 72 hrs by trypan blue exclusion assay. Format: functional. The conditions noted are these: dose 100-500 nM.
Data set [5] relates to U-251. Nature of the data set: Synergistic antiproliferative activity against human U-251 cells assessed as combination index at ED50 concentration incubated for 6 days in presence of temozolomide by trypan blue staining based automated cell counter analysis. Format: functional. To be noted: time 6 day.
The subject of data set [6] is Glioblastoma cell line. Nature of the data set: Antitumor activity against human Glioblastoma stem cell xenografted in mouse model assessed as suppression of tumor growth by measuring luminescence signals at 10 mg/kg, ip administered 3 times in a week for and measured after 3 weeks by IVIS Lumina XR imaging system. Format: functional, organism-based. A general note: In xenograft studies the graft and the host belong to different species.

Data set [7] concerns Glioblastoma cell line. Nature of the data set: Antitumor activity against human Glioblastoma stem cell xenografted in mouse model assessed as improvement in event-free survival rate at 10 mg/kg, ip administered 3 times in a week for 40 days. Format: functional, organism-based. The conditions noted are these: time 40.0 day.
The test system of data set [8] is U-251. The data set can be described thus: Synergistic antiproliferative activity against human U-251 cells assessed as combination index at ED75 concentration incubated for 6 days in presence of temozolomide by trypan blue staining based automated cell counter analysis. Format: functional. The conditions noted are these: time 6 day.
Data set [9] relates to Glioblastoma stem cell. Nature of the data set: Activation of AMPK in human Glioblastoma stem cell assessed as inhibition of cell growth at 500 nM measured after 48 hrs. Format: cell-based.
Data set [10] deals with Glioblastoma stem cell. The data set can be described thus: Activation of AMPK in human Glioblastoma stem cell assessed as increase in AMPK phosphorylation level at 500 nM measured after 48 hrs. The data set is classed as cell-based.
The subject of data set [11] is Glioblastoma stem cell. Nature of the data set: Activation of AMPK in human Glioblastoma stem cell assessed as decrease in intracellular ATP level at 500 nM measured after 48 hrs by celltiter-glo luminescent cell viability assay. Format: cell-based. To be noted: filed as activator. A general note: In ATP-based viability assays light output follows the ATP content of the culture.

Data set [12] relates to Glioblastoma stem cell. The data set can be described thus: Activation of AMPK in human Glioblastoma stem cell assessed as increase in intracellular AMP level at 500 nM measured after 48 hrs by AMP-Glo assay. The data set is classed as cell-based. The conditions noted are these: filed as activator.
The subject of data set [13] is Glioblastoma stem cell. The data set can be described thus: Activation of AMPK in human Glioblastoma stem cell assessed as increase in AMP/ATP ratio at 500 nM measured after 48 hrs. The data set is classed as cell-based. The conditions noted are these: filed as activator.
The subject of a further data set is SW48. The data set can be described thus: Antitumor activity against human SW48 cells xenografted in CB-17 SCID mouse assessed as reduction in tumor size at 20 mg/kg administered daily and measured after 3 weeks by vernier caliper method (reference value: 997+/-180 mm3). Format: functional.
Data set [14] is described as follows: Toxicity in CB-17 SCID mouse xenografted with human SW48 cells assessed as drug tolerance at 20 mg/kg administered daily and measured after 3 weeks. The conditions noted are these: in vivo, 504 h. The data set is classed as organism-based.
A short description of data set [15]: Toxicity in CB-17 SCID mouse xenografted with human SW48 cells assessed as body weigh loss at 20 mg/kg administered daily and measured after 3 weeks. The data set is classed as organism-based. To be noted: in vivo, 504 h.

As for `CCCCCCOCCOCCOCCOCCCCCCCCCCCCNC(=O)c1ccsc1`, in the data set with Glioblastoma stem cell [1], the inhibition result is “inactive”.
For the compound `COCCOCCOCCOCCCCCCCCCCCCNC(=O)c1cscc1Br`, the inhibition entry in the data set with Glioblastoma stem cell [2] was “Active”.
Turning to `CCCCCCCCCCCC[C@@H](O)[C@@H]1CC[C@@H]([C@H](O)CCCCCCCCCCNC(=O)c2ccsc2)O1`, in the data set on U-251 [3], the EC50 was 179 nM. Moreover, the Activity in [4] is on record as 153000. For the same compound, the CI in the data set with U-251 [5] is 0.972.
For the compound `CCCCCCCCCCOCCOCCOCCOCCCCCCCCCCCCNC(=O)c1ccsc1`, the result with Glioblastoma cell line [6], in the data set with Glioblastoma cell line [7], in the data set on Glioblastoma stem cell [9] (filed as activator), in the data set with Glioblastoma stem cell [10] (filed as activator), in the data set on Glioblastoma stem cell [11] and in the data set on Glioblastoma stem cell [12] was Active. The outcome in the data set with Glioblastoma stem cell [13] was Active. In addition, the EC50 in the data set on U-251 [3] is 43 nM. In addition, the inhibition result with Glioblastoma stem cell [1] was “Active”. Moreover, the CI in the data set on U-251 [5] was found to be 0.325; in the data set on U-251 [8], 0.765. The values for the Activity (with SW48; in data set [14]; in data set [15]) were 352 mm3, “Non-Toxic” and “Non-Toxic”, respectively.
Take `CCCOCCOCCOCCOCCCCCCCCCCCCNC(=O)c1ccsc1`: the inhibition result in the data set on Glioblastoma stem cell [2] is “Active”. In addition, the inhibition entry in the data set with Glioblastoma stem cell [1] was “inactive”.
On to `CCCCCCCCCOCCOCCOCCOCCCCCCCCCCCCNC(=O)c1ccsc1`, for which the inhibition entry in the data set on Glioblastoma stem cell [1] is “Active”. Further, the result in the data set on Glioblastoma stem cell [9] (filed as activator) and with Glioblastoma stem cell [10] (filed as activator) was Active.
Consider `COCCOCCOCCOCCCCCCCCCCCCNC(=O)c1ccsc1`, for which the inhibition result with Glioblastoma stem cell [2] was “Active”. The Activity in [4] is reported as 483000. Moreover, the inhibition entry with Glioblastoma stem cell [1] is “inactive”.
As to `COCCOCCOCCOCCCCCCCCCCCCNC(=O)c1cscc1C`, the inhibition result with Glioblastoma stem cell [1] was “inactive”.
On the same count and under the same terms, the value for `COCCOCCOCCOCCCCCCCCCCCCNC(=O)c1ccsc1C` was “inactive”.
The same measure, in the same setting: the value for `O=C(NCCCCCCCCCCCCOCCOCCOCCO)c1ccsc1` was “inactive”; that for `COCCOCCOCCOCCCCCCCCCCCCNC(=O)c1csc(Br)c1` was “inactive”.
As for `COCCOCCOCCOCCCCCCCCCCCCNC(=O)c1csc(C)c1`, the inhibition result in the data set on Glioblastoma stem cell [1] is “inactive”. Further, the outcome with Glioblastoma stem cell [9] and in the data set on Glioblastoma stem cell [10] was inactive.
